We go through 22 compounds from patent publication US20150266850A1 (E.I.DU PONT DE NEMOURS AND COMPANY, priority 2012, published 2015).

Series [1] is described as follows: Photostability Example: aqueous photolysis under xenon arc lamp simulating natural sunlight for 24 hours, percent remaining relative to dark controls. The series is classed as physicochemical. The note with it: 0.670 μg/mL in 80/20 10 mM pH 7 phosphate buffer/acetonitrile, xenon arc lamp 24 hours. As for the experimental part: Aqueous photolysis data is a simple proxy for photostability under field conditions. The following aqueous photolysis data supports the enhanced photostability of the tolyl fungicides of the present invention.
Test compound (0.670 μg/mL) dissolved in 80/20 10 mM pH 7 phosphate buffer/acetonitrile is added to 2-mL borosilicate glass HPLC vials. The addition of 20% acetonitrile is intended to ensure solubility of compounds with low aqueous solubility. Samples are exposed to light in an Atlas Ci65 Burner photolysis chamber fitted with a xenon arc lamp (6500 W) to simulate natural sunlight for 24 hours and compared with samples wrapped in aluminum foil to protect them from light under the same conditions. The 24-hour irradiation is equivalent to ˜2.6 days of average Delaware summer sunlight exposure. Samples are analyzed by HPLC and results are reported as percent remaining based on peak area relative to the dark controls.

Series [2] has as its system Erysiphe graminis f. sp. tritici. Description: Test A: wheat powdery mildew, preventive spray on wheat seedlings, visual disease rating. The settings on record: 100 = 100% disease control; for pest or weed control at 200 ppm / pest or weed control at 40 ppm: Blumeria graminis, 192 h. The series is classed as in vivo. Summed up: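 Wheat seedlings sprayed to run-off with compound in acetone/water with 250 ppm Trem 014 (200 ppm ≈ 800 g/ha; some at 40 or 50 ppm), inoculated next day with spore dust. After 8 days at 20° C, disease control rated visually, 0–100% relative to controls.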

The test system of series [3] is Puccinia recondita f sp. tritici. In words: Test B: wheat leaf rust, preventive spray on wheat seedlings, visual disease rating. The series is classed as in vivo. The settings on record: 100 = 100% disease control; for pest or weed control at 200 ppm / pest or weed control at 40 ppm: 192 h. A digest of the protocol: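 Test suspension in acetone/water 50/50 with 250 ppm Trem® 014, sprayed to run-off on wheat seedlings at 200 ppm (≈800 g/ha), or 40 or 50 ppm where marked. Inoculated next day with spores, held 24 h saturated at 20° C, then 7 days at 20° C; disease control rated visually, 0–100 versus controls.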

The next series has as its system Septoria tritici. Description: Test C: wheat leaf blotch, preventive spray on wheat seedlings, visual disease rating. The series is classed as in vivo. The settings on record: 100 = 100% disease control; for pest or weed control at 200 ppm / pest or weed control at 40 ppm: Zymoseptoria tritici, 504 h. A digest of the protocol:
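Compounds in acetone (11% of final volume) suspended in acetone/water 50/50 with 250 ppm Trem® 014; 200 ppm (≈800 g/ha), some at 40 or 50 ppm, sprayed to run-off. Septoria tritici inoculated next day; 48 h saturated at 24° C., then 19 days at 20° C.; visual rating, 0–100% control vs untreated.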

The next series deals with Botrytis cinerea. In words: Test E: tomato botrytis, preventive spray on tomato seedlings, visual disease rating. It counts as in vivo. The note with it: 100 = 100% disease control; for pest or weed control at 200 ppm / pest or weed control at 40 ppm: Botrytis cinerea, 120 h. A digest of the protocol:
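Compounds in acetone/water (50/50) with 250 ppm Trem 014, sprayed to run-off on tomato seedlings at 200 ppm (≈800 g/ha) unless marked 40 or 50 ppm. Inoculated next day with B. cinerea spores; 48 h saturated atmosphere at 20°C, then 3 days at 27°C; visual rating, 100 = full control vs controls.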

In a further series the test system is Septoria nodorum. Description: Test D: wheat glume blotch, preventive spray on wheat seedlings, visual disease rating. It counts as in vivo. The note with it: 100 = 100% disease control; for pest or weed control at 200 ppm / pest or weed control at 40 ppm: Parastagonospora nodorum, 216 h; for pest or weed control at 40 ppm / Test D disease control rating: 40 ppm (*). A digest of the protocol: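 Preventive test: wheat seedlings sprayed to run-off with compound suspension (acetone/water with 250 ppm Trem 014; 200 ppm, some at 40 or 50 ppm), inoculated with Septoria nodorum next day. Held 48 h saturated at 20° C, then 7 days at 20° C; visual rating 0-100% disease control versus controls.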

Marks after values point to notes of the source that are not given here.

`COC(=O)NCc1cc(-n2ccc(-c3ccc(OC)cc3C)n2)ccc1F` [10PP]: the “% Cmpd Remaining” value in series [1] was 64%.
Take `COC(=O)NCc1cc(-n2ccc(-c3ccc(OC)cc3C)n2)ccc1Cl` [10P]: the “% Cmpd Remaining” value in series [1] is given as 0%.
As to `COC(=O)NCc1cc(-n2ncc(-c3ccc(OC)cc3OC)n2)ccc1Cl` [17P], the “% Cmpd Remaining” value in series [1] is on record as 0%.
On to `COC(=O)NCc1cc(-c2ccn(-c3ccc(OC)cc3C)n2)ccc1Cl` [18P], for which the “% Cmpd Remaining” value in series [1] was 0%.
The same measure, in the same setting: the value for `COC(=O)NCc1cc(-n2ccc(-c3ccc(OC)cc3OC)n2)ccc1F` [23PP] was 5%; that for `COC(=O)NCc1cc(-n2ccc(-c3ccc(OC)cc3OC)n2)ccc1Cl` [23P] was 0%; that for `COC(=O)NCc1cc(-c2ccn(-c3ccc(OC)cc3OC)n2)ccc1Cl` [24P] was 0%.
Take `COC(=O)NCc1cc(-n2ccc(-c3ccc(OC)cc3C)n2)ccc1C` [Compound 10, methyl N-[[5-[3-(4-methoxy-2-methylphenyl)-1H-pyrazol-1-yl]-2-methylphenyl]-methyl]carbamate]: the melting point (as a rule, the temperature of the solid-liquid transition) was 97 to 99 °C. In series [2] (200 ppm), the pest or weed control (commonly how far the test organism was held down) at 200 ppm is 100%. For the same compound, in series [3] (200 ppm), the pest or weed control at 200 ppm worked out at 100%. In addition, the pest or weed control at 200 ppm in the series on Septoria tritici (200 ppm) amounted to 100%. This compound also returned a pest or weed control at 200 ppm in the series with Botrytis cinerea (200 ppm) of 97%. The “% Cmpd Remaining” value in series [1] is on record as 97%. Further, the pest or weed control at 200 ppm with Septoria nodorum came out at 100%.
In turn, `COC(=O)NCc1cc(-n2ccc(-c3ccc(Cl)cc3OC)n2)ccc1C` [Compound 11, methyl N-[[5-[3-(4-chloro-2-methoxyphenyl)-1H-pyrazol-1-yl]-2-methylphenyl]-methyl]carbamate] gave a melting point of 126 to 127 °C. The same compound showed a pest or weed control at 200 ppm in series [2] (200 ppm) of 100%. The compound also returned a pest or weed control at 200 ppm in series [3] (200 ppm) of 100%. The compound further had a pest or weed control at 200 ppm in the series with Septoria tritici (200 ppm) of 100%. Further, the pest or weed control at 200 ppm with Botrytis cinerea (200 ppm) stood at 56%. In the series on Septoria nodorum, the pest or weed control at 200 ppm came to 100%.
For the compound `COC(=O)NCc1cc(-n2ncc(-c3ccc(OC)cc3OC)n2)ccc1C` [Compound 17, methyl N-[[5-[4-(2,4-dimethoxyphenyl)-2H-1,2,3-triazol-2-yl]-2-methylphenyl]methyl]carbamate], the melting point was in the range of 132 to 135 °C. In series [2] (200 ppm), the pest or weed control at 200 ppm is 100%. In series [3] (200 ppm), the pest or weed control at 200 ppm stood at 100%. The compound also displayed a pest or weed control at 200 ppm with Septoria tritici (200 ppm) of 100%. Also, in the series with Botrytis cinerea (200 ppm), the pest or weed control at 200 ppm came out at 33%. The “% Cmpd Remaining” value in series [1] was 30%. Moreover, the pest or weed control at 200 ppm with Septoria nodorum came out at 100%.
In turn, `COC(=O)NCc1cc(-c2ccn(-c3ccc(OC)cc3C)n2)ccc1C` [Compound 18, methyl N-[[5-[1-(4-methoxy-2-methylphenyl)-1H-pyrazol-3-yl]-2-methylphenyl]methyl]carbamate] yielded a melting point of 117 to 120 °C. In series [2] (200 ppm), this compound displayed a pest or weed control at 200 ppm of 100%. The compound further had a pest or weed control at 200 ppm in series [3] (200 ppm) of 100%. The pest or weed control at 200 ppm in the series on Septoria tritici (200 ppm) stood at 100%. For the same compound, in the series with Botrytis cinerea (200 ppm), the pest or weed control at 200 ppm turned out to be 44%. Also, in series [1], the “% Cmpd Remaining” value is 98%.
For the compound `COC(=O)NCc1cc(-n2ccc(-c3ccc(OC)cc3OC)n2)ccc1C` [Compound 23, methyl N-[[5-[3-(2,4-dimethoxyphenyl)-1H-pyrazol-1-yl]-2-methylphenyl]methyl]carbamate], the pest or weed control at 200 ppm in series [2] (200 ppm) was 100%; in series [3] (200 ppm), 100%; in the series on Septoria tritici (200 ppm), 100%; with Botrytis cinerea (200 ppm) it was 66%; in the series on Septoria nodorum, 100%. For the same compound, in series [1], the “% Cmpd Remaining” value is reported as 54%.
On to `COC(=O)NCc1cc(-n2ccc(-c3ccc(Cl)cc3Cl)n2)ccc1C` [Compound 31, methyl N-[[5-[3-(2,4-dichlorophenyl)-1H-pyrazol-1-yl]-2-methylphenyl]-methyl]carbamate], for which the melting point was in the range of 101 to 103 °C. This compound showed a pest or weed control at 200 ppm in series [2] (200 ppm) of 100%. This compound showed a pest or weed control at 200 ppm in series [3] (200 ppm) of 100%. For the same compound, the pest or weed control at 200 ppm in the series with Septoria tritici (200 ppm) turned out to be 100%. In the series with Botrytis cinerea (200 ppm), this compound returned a pest or weed control at 200 ppm of 16%. The compound also displayed a pest or weed control at 200 ppm in the series with Septoria nodorum of 100%.
In the case of `COC(=O)NCc1cc(-c2ncn(-c3ccc(OC)cc3OC)n2)ccc1C` [Compound 54], the melting point was in the range of 174 to 177 °C. Also, the pest or weed control at 40 ppm in series [2] (40 ppm (*)) was determined as 99%. In series [3] (40 ppm (*)), this compound yielded a pest or weed control at 40 ppm of 100%. In addition, the pest or weed control at 40 ppm with Septoria tritici (40 ppm (*)) worked out at 49%. The same compound gave a pest or weed control at 40 ppm with Botrytis cinerea (40 ppm (*)) of 49%. Besides, the pest or weed control at 40 ppm with Septoria nodorum is 100%.
In turn, `COC(=O)NCc1cc(-c2ncn(-c3ccc(OC)cc3Cl)n2)ccc1C` [Compound 78] yielded a melting point of 145 to 148 °C. In addition, the pest or weed control at 40 ppm in series [2] (40 ppm (*)) is 99%. The same compound came in with a pest or weed control at 40 ppm in series [3] (40 ppm (*)) of 100%. The compound further gave a pest or weed control at 40 ppm with Septoria tritici (40 ppm (*)) of 93%. The same compound came in with a pest or weed control at 40 ppm in the series on Botrytis cinerea (40 ppm (*)) of 68%. The compound further registered a pest or weed control at 40 ppm in the series with Septoria nodorum of 100%.
`COC(=O)NCc1cc(-c2ncn(-c3ccc(OC)cc3F)n2)ccc1C` [Compound 79] yielded a melting point of 164 to 166 °C. For the same compound, the pest or weed control at 40 ppm in series [2] (40 ppm (*)) worked out at 100%. The compound further had a pest or weed control at 40 ppm in series [3] (40 ppm (*)) of 100%. This compound gave a pest or weed control at 40 ppm in the series on Septoria tritici (40 ppm (*)) of 95%. In addition, the pest or weed control at 40 ppm in the series with Botrytis cinerea (40 ppm (*)) was 76%. This compound yielded a pest or weed control at 40 ppm in the series with Septoria nodorum of 100%.
`COC(=O)NCc1cc(-c2ncn(-c3ccc(F)cc3F)n2)ccc1C` [Compound 117]: the melting point was in the range of 156 to 159 °C. Moreover, the pest or weed control at 200 ppm in series [2] (200 ppm) is 100%. The same compound gave a pest or weed control at 200 ppm in series [3] (200 ppm) of 100%.
As to `COC(=O)NCc1cc(-c2ncn(-c3ccc(C)cc3C)n2)ccc1C` [Compound 118, methyl N-[[5-[1-(2,4-dimethylphenyl)-1H-1,2,4-triazol-3-yl]-2-methylphenyl]methyl]carbamate], the melting point is 148 to 151 °C. The compound further showed a pest or weed control at 200 ppm in series [2] (200 ppm) of 99%. Further, the pest or weed control at 200 ppm in series [3] (200 ppm) amounted to 100%.
In turn, `COC(=O)NCc1cc(-c2ncn(-c3ccc(Cl)cc3Cl)n2)ccc1C` [Compound 119] came in with a melting point of 152 to 155 °C. In addition, the pest or weed control at 200 ppm in series [2] (200 ppm) came out at 99%. The compound also gave a pest or weed control at 200 ppm in series [3] (200 ppm) of 100%.
In the case of `COC(=O)NCc1cc(-c2ccn(-c3ccc(OC)cc3OC)n2)ccc1C` [compound 24], in series [2] (200 ppm), the “Test A disease control rating” value was 100%. In series [3] (200 ppm), the “Test B disease control rating” value was 100%. Also, the “Test C disease control rating” value in the series with Septoria tritici (200 ppm) is reported as 100%. Besides, the “Test E disease control rating” value in the series on Botrytis cinerea (200 ppm) is given as 55%. The “% Cmpd Remaining” value in series [1] is 78%.
Consider “methyl N-[[5-[3-(2,6-dimethoxy-3-pyridinyl)-1H-pyrazol-1-yl]-2-methylphenyl]-methyl]carbamate [Compound 46]”, for which, in series [2] (40 ppm (*)), the “Test A disease control rating” value is 98* %. Besides, the “Test B disease control rating” value in series [3] (40 ppm (*)) is reported as 100* %. For the same compound, in the series with Septoria tritici (40 ppm (*)), the “Test C disease control rating” value is recorded as 98* %. Moreover, the “Test E disease control rating” value in the series on Botrytis cinerea (40 ppm (*)) was 92* %. For the same compound, the “Test D disease control rating” value with Septoria nodorum is recorded as 100* %.
Regarding “methyl N-[[5-[4-(2,4-dimethylphenyl)-2H-1,2,3-triazol-2-yl]-2-methylphenyl]-methyl]carbamate [Compound 91]”, the “Test A disease control rating” value in series [2] (40 ppm (*)) is recorded as 100* %. In addition, the “Test B disease control rating” value in series [3] (40 ppm (*)) is reported as 100* %. The “Test C disease control rating” value with Septoria tritici (40 ppm (*)) is given as 92* %. Further, the “Test E disease control rating” value with Botrytis cinerea (40 ppm (*)) was 33* %. Moreover, the “Test D disease control rating” value with Septoria nodorum is recorded as 100* %.
